Experiments:
[1] = tested on: OCI-AML2, HL60, and KG1a leukemia cell lines; assay: Chemical screen for cytotoxic compounds, MTS assay; type: cell-based, human; conditions: 72 hours, all cell lines in the screen, read-out: EC50, reduced cell viability
Experimental: HL60, KG1a, and OCI-AML2 leukemia cells were seeded into 96-well polystyrene tissue culture plates (Nunc). After seeding, cells were treated with aliquots of the chemical library (=100) at increasing concentrations (3 to 50 μM) with a final DMSO concentration of 0.5%. Seventy two hours after incubation, cell growth and viability was measured by the MTS assay. Liquid handling was performed by a Biomek FX Laboratory Automated Workstation (Beckman Coulter Fullerton, Calif.).
Cell growth and viability was assessed by the MTS assay (Promega, Madison, Wis.) according to the manufacturer's instructions and as previously described.^12 Cell death was measured by Annexin V-fluoroscein isothiocyanate (FITC) and Propidium Iodide (PI; Biovision Research Products, Mountain View, Calif.) staining and flow cytometry according to the manufacturer's instructions and as previously described.^13 To identify CD34+ cells, a normal PBSC sample was co-stained with PE-anti-CD34+ (Beckman Coulter, Marseille France), and APC-anti-CD45 (Becton Dickenson, San Jose Calif.).
A small chemical library (n=100) focused on anti-microbials and metabolic regulators with wide therapeutic windows and well understood pharmacokinetics was compiled. […] Seventy two hours after incubation, cell growth and viability was measured by the MTS assay. […]

[2] = tested on: U937 and TEX leukemia cells as well as primary AML cells; assay: Plasma membrane potential, DiBAC4(3) staining, sensitive cells; type: cell-based, human; conditions: after ivermectin treatment
Experimental: Plasma membrane potential was measured as previously described.^18 Briefly, cells treated with IVM or buffer control in RPM1, chloride replete medium (140 mM sodium chloride, 5 mM potassium chloride, 1 mM magnesium sulfate, 1.8 mM calcium acetate, 10 mM glucose, 10 mM HEPES and 0.1% (wt/v) BSA), or chloride free media where equimolar gluconate salts of sodium and potassium replaced the sodium chloride in the chloride replete medium. After incubation, cells were stained with DiBAC4(3) (final concentration 30 nM) and fluorescence determined by flow cytometry (BD FACS Canto, Becton Dickinson, San Jose, Calif.) (excitation=488 nm, emission=516 nm) Analysis was conducted using FACSDiva Software (BD Biosciences). Calibration curves were prepared using phosphate buffers with varying potassium ion concentrations as previously described.^18
In nematodes, increases in intracellular chloride after IVM treatment cause membrane hyperpolarization. Therefore, the effects of IVM on plasma and mitochondrial membrane polarization was evaluated in leukemia cells. […] At increasing times after incubation, plasma membrane potential was measured by staining cells with DiBAC4(3) and flow cytometric analysis.

Substance: ivermectin
- EC50 [1]: < 10 µM
- plasma membrane potential [2]: demonstrated plasma membrane hyperpolarization

From US20120225123A1, “Use of Synergistic Combinations of an Avermectin and an Antineoplastic Compounds for the Treatment of Hematological Malignancies” (UNIVERSITY HEALTH NETWORK, priority 2009, published 2012)
